ChEMBL document CHEMBL1201862, “PubChem BioAssay data set” (2004)
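Growth conditions: 96-well plates. Treatment: test compound, 48 hours, 5 concentrations. Analysis: linear interpolation between bracketing concentrations; unreached endpoints set to highest concentration. GI50: concentration for 50% inhibition of growth.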 The source made the active and inactive calls. Cut-off read from the data, not from the text of the source: active = GI50 up to about 1.1 µM and inactive = higher.

Experiments:
Assay in all cases: NCI anticancer screen, dose series, 48 h
786-0 = tested on: 786-0
A498 = tested on: A498
A549 = tested on: A549
ACHN = tested on: ACHN
BT-549 = tested on: BT-549
CAKI-1 = tested on: CAKI-1
CCRF-CEM = tested on: CCRF-CEM
COLO 205 = tested on: COLO 205
DU-145 = tested on: DU-145
EKVX = tested on: EKVX
HCC 2998 = tested on: HCC 2998
HCT-116 = tested on: HCT-116
HCT-15 = tested on: HCT-15
HL-60 = tested on: HL-60
HOP-62 = tested on: HOP-62
HOP-92 = tested on: HOP-92
HT-29 = tested on: HT-29
Hs-578T = tested on: Hs-578T
IGROV-1 = tested on: IGROV-1
K562 = tested on: K562
KM12 = tested on: KM12
LOX IMVI = tested on: LOX IMVI
M14 = tested on: M14
MCF7 = tested on: MCF7
MDA-MB-231 = tested on: MDA-MB-231
MDA-MB-435 = tested on: MDA-MB-435
Malme-3M = tested on: Malme-3M
NCI-H226 = tested on: NCI-H226
NCI-H23 = tested on: NCI-H23
NCI-H460 = tested on: NCI-H460
NCI-H522 = tested on: NCI-H522
NCI/ADR-RES = tested on: NCI/ADR-RES
OVCAR-3 = tested on: OVCAR-3
OVCAR-4 = tested on: OVCAR-4
OVCAR-5 = tested on: OVCAR-5
OVCAR-8 = tested on: OVCAR-8
PC-3 = tested on: PC-3
RPMI-8226 = tested on: RPMI-8226
RXF 393 = tested on: RXF 393
SF-268 = tested on: SF-268
SF-295 = tested on: SF-295
SF-539 = tested on: SF-539
SK-MEL-28 = tested on: SK-MEL-28
SK-MEL-2 = tested on: SK-MEL-2
SK-MEL-5 = tested on: SK-MEL-5
SK-OV-3 = tested on: SK-OV-3
SN12C = tested on: SN12C
SNB-19 = tested on: SNB-19
SNB-75 = tested on: SNB-75
SR = tested on: SR
SW-620 = tested on: SW-620
T47D = tested on: T47D
TK-10 = tested on: TK-10
U-251 = tested on: U-251
UACC-257 = tested on: UACC-257
UACC-62 = tested on: UACC-62
UO-31 = tested on: UO-31
MDA-N = tested on: MDA-N
MOLT-4 = tested on: MOLT-4

`COc1cc(/C=C/c2cc(=O)cc(/C=C/c3ccc(O)c(OC)c3)o2)ccc1O` was tested, and the GI50 (786-0) was 23.3 µM (inactive), the GI50 (A498) was > 100 µM (inactive) and the GI50 (A549) was 64.1 µM (inactive). For the same compound, the GI50 (ACHN) was 48.1 µM (inactive), the GI50 (BT-549) was 99.8 µM (inactive) and the GI50 (CAKI-1) was 64.3 µM (inactive). For the same compound, the GI50 (CCRF-CEM) was 0.324 µM (active), the GI50 (COLO 205) was > 100 µM (inactive) and the GI50 (DU-145) was 31 µM (inactive). For the same compound, the GI50 (EKVX) was > 70 µM (inactive), the GI50 (HCC 2998) was 13.6 µM (inactive) and the GI50 (HCT-116) was > 55.5 µM (inactive). For the same compound, the GI50 (HCT-15) was 60.4 µM, the GI50 (HL-60) was 15.7 µM (inactive) and the GI50 (HOP-62) was 22 µM (inactive). The GI50 (HOP-92) was 17.9 µM (inactive), the GI50 (HT-29) was > 80.4 µM (inactive) and the GI50 (Hs-578T) was 24.4 µM (inactive). The GI50 (IGROV-1) was > 100 µM (inactive), the GI50 (K562) was > 21 µM (inactive) and the GI50 (KM12) was > 38.3 µM (inactive). The GI50 (LOX IMVI) was 29.6 µM (inactive), the GI50 (M14) was > 100 µM (inactive) and the GI50 (MCF7) was 6.27 µM (inactive). For the same compound, the GI50 (MDA-MB-231) was 26.4 µM (inactive), the GI50 (MDA-MB-435) was 35.5 µM (inactive) and the GI50 (Malme-3M) was > 69.5 µM (inactive). For the same compound, the GI50 (NCI-H226) was 29.3 µM (inactive), the GI50 (NCI-H23) was 59.7 µM (inactive) and the GI50 (NCI-H460) was 44 µM (inactive). The GI50 (NCI-H522) was 9.79 µM (inactive), the GI50 (NCI/ADR-RES) was 98.4 µM (inactive) and the GI50 (OVCAR-3) was 76.4 µM (inactive). The GI50 (OVCAR-4) was 16.4 µM (inactive), the GI50 (OVCAR-5) was > 100 µM (inactive) and the GI50 (OVCAR-8) was 46.2 µM (inactive). For the same compound, the GI50 (PC-3) was > 85.9 µM (inactive), the GI50 (RPMI-8226) was 1.1 µM (active) and the GI50 (RXF 393) was 15.9 µM (inactive). The GI50 (SF-268) was 38 µM (inactive), the GI50 (SF-295) was 32.4 µM (inactive) and the GI50 (SF-539) was > 62.5 µM (inactive). For the same compound, the GI50 (SK-MEL-28) was > 100 µM (inactive), the GI50 (SK-MEL-2) was 41.2 µM (inactive) and the GI50 (SK-MEL-5) was 13.6 µM (inactive). For the same compound, the GI50 (SK-OV-3) was 76.4 µM (inactive), the GI50 (SN12C) was > 60.3 µM (inactive) and the GI50 (SNB-19) was > 92 µM (inactive). For the same compound, the GI50 (SNB-75) was 29.9 µM (inactive), the GI50 (SR) was > 23.6 µM (inactive) and the GI50 (SW-620) was > 35.5 µM (inactive). The GI50 (T47D) was 15.3 µM (inactive), the GI50 (TK-10) was > 75.5 µM (inactive) and the GI50 (U-251) was 25.5 µM (inactive). For the same compound, the GI50 (UACC-257) was > 100 µM (inactive), the GI50 (UACC-62) was 44.1 µM (inactive) and the GI50 (UO-31) was > 100 µM (inactive).

With `COc1cc2c(cc1OCCCN1CCOCC1)N=C[C@@H]1CCCN1C2=O` the GI50 (786-0) was 4.16 µM (inactive), the GI50 (A498) was 10.1 µM (inactive) and the GI50 (A549) was 35.7 µM (inactive). For the same compound, the GI50 (ACHN) was 14 µM (inactive), the GI50 (BT-549) was 6.53 µM (inactive) and the GI50 (CAKI-1) was 5.82 µM (inactive). The GI50 (CCRF-CEM) was 2.75 µM (inactive), the GI50 (COLO 205) was 1.87 µM (inactive) and the GI50 (DU-145) was 21.7 µM (inactive). The GI50 (EKVX) was 19.4 µM (inactive), the GI50 (HCT-116) was 12.8 µM (inactive) and the GI50 (HCT-15) was 24.9 µM. For the same compound, the GI50 (HL-60) was 5.74 µM (inactive), the GI50 (HOP-62) was 12.5 µM (inactive) and the GI50 (HOP-92) was 2.37 µM (inactive). For the same compound, the GI50 (HT-29) was 8.79 µM (inactive), the GI50 (Hs-578T) was 16.9 µM (inactive) and the GI50 (K562) was 4.73 µM (inactive). The GI50 (KM12) was 13.4 µM (inactive), the GI50 (LOX IMVI) was 4.48 µM (inactive) and the GI50 (M14) was 11 µM (inactive). The GI50 (MCF7) was 7.24 µM (inactive), the GI50 (MDA-MB-231) was 11 µM (inactive) and the GI50 (MDA-MB-435) was 11.8 µM (inactive). The GI50 (MDA-N) was 6.89 µM (inactive), the GI50 (MOLT-4) was 4.91 µM (inactive) and the GI50 (Malme-3M) was 8.3 µM (inactive). The GI50 (NCI-H226) was 4.66 µM (inactive), the GI50 (NCI-H460) was 24.5 µM (inactive) and the GI50 (NCI-H522) was 1.25 µM (inactive). The GI50 (NCI/ADR-RES) was 35 µM (inactive), the GI50 (OVCAR-3) was 2.83 µM (inactive) and the GI50 (OVCAR-4) was 13.3 µM (inactive). For the same compound, the GI50 (OVCAR-5) was 15.5 µM (inactive), the GI50 (OVCAR-8) was 24.7 µM (inactive) and the GI50 (PC-3) was 18.6 µM (inactive). The GI50 (RPMI-8226) was 2.21 µM (inactive), the GI50 (RXF 393) was 2.75 µM (inactive) and the GI50 (SF-268) was 7.53 µM (inactive). For the same compound, the GI50 (SF-295) was 9.59 µM (inactive), the GI50 (SF-539) was 4.7 µM (inactive) and the GI50 (SK-MEL-28) was 12.6 µM (inactive). The GI50 (SK-MEL-2) was 11.2 µM (inactive), the GI50 (SK-MEL-5) was 4.07 µM (inactive) and the GI50 (SK-OV-3) was 10.8 µM (inactive). The GI50 (SN12C) was 23.6 µM (inactive), the GI50 (SNB-19) was 18.8 µM (inactive) and the GI50 (SR) was 3.57 µM (inactive). For the same compound, the GI50 (SW-620) was 3.33 µM (inactive), the GI50 (TK-10) was 19.8 µM (inactive) and the GI50 (U-251) was 4.41 µM (inactive). The GI50 (UACC-257) was 24.6 µM (inactive), the GI50 (UACC-62) was 12.8 µM (inactive) and the GI50 (UO-31) was 11.5 µM (inactive).
